This is an account of results in ChEMBL document CHEMBL1156725, “8-Biarylchromen-4-one inhibitors of the DNA-dependent protein kinase (DNA-PK)” (Bioorg Med Chem Lett, 2008).

The test addresses DNA-dependent protein kinase catalytic subunit (Homo sapiens, UniProt P78527). As to the kind of experiment: Inhibition of DNA-dependent protein kinase.

Sequence of DNA-dependent protein kinase catalytic subunit (P78527 whole entry): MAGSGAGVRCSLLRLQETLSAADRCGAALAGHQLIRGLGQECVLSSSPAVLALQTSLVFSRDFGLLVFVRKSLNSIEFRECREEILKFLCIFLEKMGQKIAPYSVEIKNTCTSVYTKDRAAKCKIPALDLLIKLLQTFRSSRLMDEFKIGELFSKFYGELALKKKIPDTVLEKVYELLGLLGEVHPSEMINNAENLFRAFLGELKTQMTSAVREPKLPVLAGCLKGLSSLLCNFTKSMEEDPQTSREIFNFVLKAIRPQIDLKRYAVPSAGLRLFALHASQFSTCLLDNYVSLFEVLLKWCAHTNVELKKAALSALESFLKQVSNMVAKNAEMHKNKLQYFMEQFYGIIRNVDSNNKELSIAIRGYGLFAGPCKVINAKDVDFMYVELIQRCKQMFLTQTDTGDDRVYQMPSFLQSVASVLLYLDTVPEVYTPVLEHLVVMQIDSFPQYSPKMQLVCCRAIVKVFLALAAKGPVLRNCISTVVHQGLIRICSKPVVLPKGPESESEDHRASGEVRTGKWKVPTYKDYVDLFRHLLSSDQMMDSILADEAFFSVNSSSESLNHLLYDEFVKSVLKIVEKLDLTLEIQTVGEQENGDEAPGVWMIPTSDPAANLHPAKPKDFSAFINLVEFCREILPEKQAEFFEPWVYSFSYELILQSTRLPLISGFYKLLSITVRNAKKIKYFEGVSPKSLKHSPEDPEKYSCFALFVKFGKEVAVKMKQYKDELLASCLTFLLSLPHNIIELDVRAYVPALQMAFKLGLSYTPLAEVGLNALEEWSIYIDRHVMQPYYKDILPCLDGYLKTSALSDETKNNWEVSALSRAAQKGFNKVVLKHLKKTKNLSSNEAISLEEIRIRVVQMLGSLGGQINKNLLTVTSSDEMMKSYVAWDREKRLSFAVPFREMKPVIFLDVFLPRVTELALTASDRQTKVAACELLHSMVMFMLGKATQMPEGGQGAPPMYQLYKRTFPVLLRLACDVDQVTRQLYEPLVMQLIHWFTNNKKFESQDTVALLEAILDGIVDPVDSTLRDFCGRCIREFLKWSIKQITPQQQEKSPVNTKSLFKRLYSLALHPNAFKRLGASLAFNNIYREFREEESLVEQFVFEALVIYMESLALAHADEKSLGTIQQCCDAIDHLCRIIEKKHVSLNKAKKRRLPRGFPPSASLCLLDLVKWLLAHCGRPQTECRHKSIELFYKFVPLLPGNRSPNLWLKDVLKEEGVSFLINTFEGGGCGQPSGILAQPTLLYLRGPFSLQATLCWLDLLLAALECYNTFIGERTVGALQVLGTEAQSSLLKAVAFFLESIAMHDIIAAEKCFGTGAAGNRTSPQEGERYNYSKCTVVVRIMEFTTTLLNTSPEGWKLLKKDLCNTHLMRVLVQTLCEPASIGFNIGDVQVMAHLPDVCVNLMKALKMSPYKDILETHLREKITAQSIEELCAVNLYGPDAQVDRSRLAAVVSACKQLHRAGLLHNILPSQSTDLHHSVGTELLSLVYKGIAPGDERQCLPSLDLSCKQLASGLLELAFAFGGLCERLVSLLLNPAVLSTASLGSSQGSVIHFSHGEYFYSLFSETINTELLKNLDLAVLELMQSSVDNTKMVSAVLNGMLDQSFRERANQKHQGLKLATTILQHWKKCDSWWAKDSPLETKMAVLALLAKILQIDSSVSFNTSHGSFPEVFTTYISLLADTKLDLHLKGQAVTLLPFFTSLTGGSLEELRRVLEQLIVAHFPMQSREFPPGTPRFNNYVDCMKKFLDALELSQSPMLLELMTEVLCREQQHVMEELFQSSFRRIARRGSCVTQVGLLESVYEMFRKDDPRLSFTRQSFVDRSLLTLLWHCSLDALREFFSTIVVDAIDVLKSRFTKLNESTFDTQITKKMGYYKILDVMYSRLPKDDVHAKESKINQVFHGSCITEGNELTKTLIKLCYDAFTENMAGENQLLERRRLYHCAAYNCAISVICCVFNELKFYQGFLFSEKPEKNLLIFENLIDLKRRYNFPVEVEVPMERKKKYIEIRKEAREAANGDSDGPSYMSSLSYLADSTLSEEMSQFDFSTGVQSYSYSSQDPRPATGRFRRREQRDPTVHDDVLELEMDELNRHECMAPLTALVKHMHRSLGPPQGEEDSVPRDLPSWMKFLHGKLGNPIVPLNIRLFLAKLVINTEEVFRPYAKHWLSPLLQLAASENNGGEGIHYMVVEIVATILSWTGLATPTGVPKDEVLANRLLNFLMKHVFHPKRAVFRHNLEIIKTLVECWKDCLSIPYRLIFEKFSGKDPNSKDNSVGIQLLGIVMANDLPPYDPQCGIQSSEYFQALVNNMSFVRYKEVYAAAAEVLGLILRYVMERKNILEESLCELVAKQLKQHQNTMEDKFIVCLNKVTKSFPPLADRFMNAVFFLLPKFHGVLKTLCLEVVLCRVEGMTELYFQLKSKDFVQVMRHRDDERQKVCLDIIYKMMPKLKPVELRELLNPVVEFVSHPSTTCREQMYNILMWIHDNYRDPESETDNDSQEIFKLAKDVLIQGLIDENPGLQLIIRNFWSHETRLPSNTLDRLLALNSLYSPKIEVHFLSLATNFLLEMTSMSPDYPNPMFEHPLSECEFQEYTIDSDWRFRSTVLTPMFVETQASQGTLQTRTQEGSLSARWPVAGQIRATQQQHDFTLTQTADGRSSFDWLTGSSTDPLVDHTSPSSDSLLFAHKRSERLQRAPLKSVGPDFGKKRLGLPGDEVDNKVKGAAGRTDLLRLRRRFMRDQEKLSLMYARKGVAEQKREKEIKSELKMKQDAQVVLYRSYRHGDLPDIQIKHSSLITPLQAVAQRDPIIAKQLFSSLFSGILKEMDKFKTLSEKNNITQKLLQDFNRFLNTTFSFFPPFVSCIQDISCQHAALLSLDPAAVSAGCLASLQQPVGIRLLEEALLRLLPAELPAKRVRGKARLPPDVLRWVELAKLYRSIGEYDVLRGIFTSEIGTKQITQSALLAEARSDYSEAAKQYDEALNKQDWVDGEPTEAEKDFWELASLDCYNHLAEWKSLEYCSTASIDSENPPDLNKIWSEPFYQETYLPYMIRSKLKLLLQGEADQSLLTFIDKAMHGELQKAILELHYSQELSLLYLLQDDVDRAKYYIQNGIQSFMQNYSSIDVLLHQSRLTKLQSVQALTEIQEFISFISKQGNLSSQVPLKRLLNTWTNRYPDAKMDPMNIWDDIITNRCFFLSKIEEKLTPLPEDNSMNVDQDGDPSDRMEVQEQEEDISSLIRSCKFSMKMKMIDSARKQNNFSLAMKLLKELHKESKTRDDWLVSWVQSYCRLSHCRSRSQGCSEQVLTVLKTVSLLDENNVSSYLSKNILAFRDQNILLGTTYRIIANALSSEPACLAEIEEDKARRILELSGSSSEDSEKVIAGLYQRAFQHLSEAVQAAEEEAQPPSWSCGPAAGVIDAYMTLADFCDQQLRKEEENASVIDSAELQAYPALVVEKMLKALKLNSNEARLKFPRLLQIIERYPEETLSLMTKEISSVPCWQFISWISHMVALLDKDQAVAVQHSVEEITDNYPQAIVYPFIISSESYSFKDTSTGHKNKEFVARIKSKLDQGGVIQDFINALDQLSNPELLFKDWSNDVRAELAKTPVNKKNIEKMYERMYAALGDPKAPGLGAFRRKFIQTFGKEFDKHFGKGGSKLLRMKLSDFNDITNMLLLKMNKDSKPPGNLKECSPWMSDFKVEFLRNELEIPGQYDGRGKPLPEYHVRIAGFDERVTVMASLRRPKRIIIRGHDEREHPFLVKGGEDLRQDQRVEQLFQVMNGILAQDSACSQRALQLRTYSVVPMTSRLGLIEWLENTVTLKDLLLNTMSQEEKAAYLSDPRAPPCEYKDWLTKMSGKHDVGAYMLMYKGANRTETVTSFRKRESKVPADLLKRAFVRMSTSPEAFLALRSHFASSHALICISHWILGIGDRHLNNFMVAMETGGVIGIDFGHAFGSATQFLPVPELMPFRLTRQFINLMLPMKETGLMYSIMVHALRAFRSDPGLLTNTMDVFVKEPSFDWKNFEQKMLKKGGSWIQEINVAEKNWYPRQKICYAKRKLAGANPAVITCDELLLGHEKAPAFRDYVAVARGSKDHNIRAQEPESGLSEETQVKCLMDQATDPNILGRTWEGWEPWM

`O=c1cc(N2CCOCC2)oc2c(-c3cccc4c3sc3ccccc34)cccc12` came in with a half-maximal inhibitory concentration (IC50) of 12 nM.

Consider `O=c1cc(N2CCOCC2)oc2c(-c3cccc(-c4ncccn4)c3)cccc12`, for which half-maximal inhibition (IC50) required 3050 nM.

Regarding `O=c1cc(N2CCOCC2)oc2c(-c3cccc(-c4cncnc4)c3)cccc12`, inhibition was half-maximal at 1570 nM (IC50).

`O=c1cc(N2CCOCC2)oc2c(-c3cc(-c4ccccc4)cs3)cccc12` displayed an IC50 of 90 nM.

`O=c1cc(N2CCOCC2)oc2c(-c3ccc(-c4ccccc4)s3)cccc12` yielded an IC50 of 400 nM.

Take `O=c1cc(N2CCOCC2)oc2c(-c3ncc(-c4ccccc4)s3)cccc12`: the IC50 worked out at 370 nM.

With `O=c1cc(N2CCOCC2)oc2c(-c3cccc(-c4ccc(O)cc4)c3)cccc12`, the IC50 came out at 140 nM.

As to `N#Cc1ccc(-c2cccc(-c3cccc4c(=O)cc(N5CCOCC5)oc34)c2)cc1`, the IC50 was determined as 1480 nM.

`Nc1cc(C(=O)O)cc(-c2cccc(-c3cccc4c(=O)cc(N5CCOCC5)oc34)c2)c1` had an IC50 of 510 nM.

Consider `O=c1cc(N2CCOCC2)oc2c(-c3cccc(-c4ccco4)c3)cccc12`, for which the IC50 stood at 380 nM.

As to `O=c1cc(N2CCOCC2)oc2c(-c3cccc(-c4ccoc4)c3)cccc12`, the IC50 came out at 270 nM.

`O=c1cc(N2CCOCC2)oc2c(-c3cccc(-c4ccc(CO)cc4)c3)cccc12`: it took 1000 nM to reach half-maximal inhibition (IC50).

In turn, `NCc1ccc(-c2cccc(-c3cccc4c(=O)cc(N5CCOCC5)oc34)c2)cc1` gave a half-inhibitory concentration (IC50) of 1900 nM.

In the case of `Cc1cc(-c2cccc(-c3cccc4c(=O)cc(N5CCOCC5)oc34)c2)cs1`, the half-maximal inhibitory concentration (IC50) came out at 1130 nM.

`Cc1cscc1-c1cccc(-c2cccc3c(=O)cc(N4CCOCC4)oc23)c1` gave an IC50 of 640 nM.

On to `COC(=O)c1cc(N)cc(-c2cccc(-c3cccc4c(=O)cc(N5CCOCC5)oc34)c2)c1`, for which the IC50 stood at 260 nM.

In turn, `O=c1cc(N2CCOCC2)oc2c(-c3cccc(-c4ccsc4)c3)cccc12` came in with an IC50 of 20 nM.

`Cc1ccc(-c2cccc(-c3cccc4c(=O)cc(N5CCOCC5)oc34)c2)s1` returned an IC50 of 1070 nM.

As to `Cn1ccnc1-c1cccc(-c2cccc3c(=O)cc(N4CCOCC4)oc23)c1`, the IC50 came to 3010 nM.

Compound `Cn1cncc1-c1cccc(-c2cccc3c(=O)cc(N4CCOCC4)oc23)c1` yielded an IC50 of 1230 nM.

`O=c1cc(N2CCOCC2)oc2c(-c3cccc(-c4nccs4)c3)cccc12` showed an IC50 of 490 nM.

`O=c1cc(N2CCOCC2)oc2c(-c3cccc(-c4ccncc4)c3)cccc12` displayed an IC50 of 510 nM.

In the case of `O=c1cc(N2CCOCC2)oc2c(-c3cccc(-c4ccccc4)c3)cccc12`, the IC50 was 180 nM.

As for `COc1ccc(-c2cccc(-c3cccc4c(=O)cc(N5CCOCC5)oc34)c2)cc1`, the IC50 worked out at 830 nM.

Take `O=Cc1ccc(-c2cccc(-c3cccc4c(=O)cc(N5CCOCC5)oc34)c2)cc1`: the IC50 is 1100 nM.

With `Cc1ccsc1-c1cccc(-c2cccc3c(=O)cc(N4CCOCC4)oc23)c1`, the IC50 amounted to 360 nM.

The compound `O=c1cc(N2CCOCC2)oc2c(-c3cccc(-c4cccs4)c3)cccc12` displayed an IC50 of 18 nM.

Turning to `O=c1cc(N2CCOCC2)oc2c(-c3cccc(-c4ccccn4)c3)cccc12`, the IC50 worked out at 880 nM.

Compound `O=c1cc(N2CCOCC2)oc2c(-c3cccc(-c4cc[nH]c4)c3)cccc12` had an IC50 of 1820 nM.

For `O=c1cc(N2CCOCC2)oc2c(-c3ccccc3)cccc12` [LY-294002], the IC50 worked out at 1600 nM.

Usually IC50 stands for the concentration at which inhibition is half-maximal. High values mean lower potency, low ones higher potency.
